According to patent US12663426B2, “Method and composition for measurement of nitric oxide” (The University of Chicago, priority 2019, dated 2026):

Molecular target: T1, NOS3 (Homo sapiens, UniProt P29474)
T1 construct: endogenous, basal NOS3 activity was estimated at each of these sub-cellular locations in T-47D cells; endogenous in cells; host or cells: T-47D cells
Assay: Steady state NOS3 activity imaging at plasma membrane and TGN with NOckout probes
Format: cell-based
Settings: T-47D cells
Protocol: Image acquisition. T-47D cells were maintained as mentioned above in the cell culture section. Cells were washed twice with Hank's balanced salt solution (HBSS) before incubating them with 500 nM NOckout^TGN for 30 min or 500 nM NOckout^PM for 10 min at 37° C. followed by 3 washes with HBSS solution to remove any unloaded sensors. For steady state imaging (FIG. 1), cells were treated with indicated agonists or antagonists for 1 hr in complete RPMI-1640 medium. Care was taken not to exceed the final concentration of DMSO>1% at any time of the experiment. Additionally, 1% DMSO was used as a negative control in untreated (Basal) cells. […] The cells are then washed and imaged (FIG. 1f).
For simultaneous imaging cells were treated with 500 nM NOckout^TGN for 30 min where last 10 min cells were co-incubated with 500 nM NOckout^PM. In order to achieve lowest signal (PTIO, FIG. 1e-f) or to achieve bleaching profile (PTIO, FIG. 3e) cells were pre-treated with 500 μM PTIO for 15 minutes. Images were captured on a Laser scanning confocal Leica SP8 microscope using 63×, 1.4UV NA objective. Desired excitation and emission wavelengths was achieved using white light laser along with notch filters and acousto-optical tunable filters. A488, DAR and A647 were imaged using the following settings—Alexa488 (λex=488 nm, λem=500 nm to 540 nm), DAR (λex=554 nm, λem=565 nm to 610 nm) and Alexa647 (λex=647 nm, λem=665 nm to 710 nm).
Image analysis was performed using Fiji (Schindelin, J. et al. Fiji: an open-source platform for biological-image analysis. Nat Methods 9, 676-682 (2012)). Auto-fluorescence was subtracted from images for ratiometric analysis. For representation, images were further processed by smooth and despeckle functions. In order to present G/B or G/R images, a mask for each image was constructed using Otsu thresholding method, and mask-multiplied images were used for division. The ROI plugin in Fiji was used to select either TGN (Alexa647 channel) or PM (Alexa488 channel) and these ROIs were recalled in DAR channel to measure intensity in all three channels.
Next, endogenous, basal NOS3 activity was estimated at each of these sub-cellular locations in T-47D cells without explicitly activating NOS3. To do this, the ratiometric NOckout^PM response, i.e. the G/B ratio, was first measured under conditions where cells were depleted of NO using the NO scavenger 2-phenyl-4,4,5,5-tetramethylimidazoline-1-oxyl 3-oxide (PTIO, 300 μM) (Goldstein, S., Russo, A. & Samuni, A. Reactions of PTIO and carboxy-PTIO with *NO, *NO2, and O2−*. J Biol. Chem. 278, 50949-50955 (2003)). […] These two extreme cases provide the minimum and maximum G/B signals afforded by NOckout^PM in the cell (FIG. 1e-f). The G/B values under any subsequent condition are normalized to the maximum G/B signal. […]

Row | Compound | G/B and G/R values of NOckout probes (NOS3 activity)
1 | Nc1ncnc2c1ncn2[C@@H]1O[C@H](COP(=O)(O)OP(=O)(O)OP(=O)(O)O)[C@@H](O)[C@H]1O [ATP] | significantly higher G/B and G/R ratios
2 | C[C@]12CC[C@@H]3c4ccc(O)cc4CC[C@H]3[C@@H]1CC[C@@H]2O [E2, 17 β-Estradiol] | selectively activated NOS3 only at the plasma membrane
3 | COC(=O)[C@@H](N)CCCNC(=N)N[N+](=O)[O-] [L-NAME, L-N^G-Nitroarginine methyl ester] | reflected those of PTIO-treated cells

Tested on: S-nitrosylation at the Golgi
Assay: Anti-S-nitrosocysteine immunostaining of T-47D cells
Format: cell-based
Settings: not given
Protocol: (§1) Immunofluorescence staining. Cells were cultured on a glass bottom 3.5 cm imaging dish to reach 60% confluency. […] Treated cells were then washed three times with 1× PBS (pH 7.4) and fixed using, 4% paraformaldehyde at room temperature (RT, 15 min). Subsequently, cells were permeabilized using 0.25% triton X-100 followed by blocking using 3% BSA in 1× PBS. Cells were then incubated with indicated primary antibodies—mouse monoclonal anti-eNOS antibody (SantaCruz Cat #sc-376751), Polyclonal Anti-S-nitrosocysteine antibody (Abeam Cat #ab94930 or Abeam Cat #ab50185), Rabbit polyclonal Anti-Giantin antibody (Abeam Cat #ab24586) or Mouse monoclonal Anti-GM130 antibody (BD Biosciences Cat #610822) in blocking buffer (3% BSA in 1× 4 PBS) for 1 hour at RT. Cells were then washed for 5 min with 1× PBS (3×). Respective secondary antibodies conjugated with either Alexafluor 488 or Alexafluor 647 were added to the cells and incubated for 1 hr at RT. Cells were washed again to remove excess secondary antibody using 1× PBS for 5 min (3×). Hoechst 33342 (5 μM) was added 10 min prior to imaging to stain nuclear DNA. Cells were then imaged on a Leica SP8 laser scanning confocal microscope using excitation wavelengths 405 nm (Hoechst), 488 nm (AlexaFluor 488) and 647 nm (AlexaFluor 647). Images were processed using Fiji and maximum z-projection of 2-3 z-planes are used in representative images.
In order to address the significance of the […] population of NOS3 at the TGN, T-47D cells were immunostained using an antibody specific to S-nitrosocysteine.
Similar observations were made in MCF-7 cells upon NO depletion (FIG. 23). These studies reveal that the Golgi is a cellular hot-spot for 5-nitrosylation of proteins by NOS3, where it is essential for the maintenance of Golgi architecture in breast cancer cells. […] In addition to Golgi fragmentation, NO scavenging also hampered cell growth by inducing cell sensescence (FIG. 24).

Row | Compound | S-nitrosylation at the Golgi
4 | COC(=O)[C@@H](N)CCCNC(=N)N[N+](=O)[O-] [L-NAME, L-N^G-Nitroarginine methyl ester] | dramatically reduced
5 | CC1(C)N([O])C(c2ccccc2)=[N+]([O-])C1(C)C [PTIO, 2-phenyl-4,4,5,5-tetramethylimidazoline-1-oxyl 3-oxide] | greatly diminished

Tested on: T-47D cells
Assay: Golgi fragmentation (Giantin/GM130 immunofluorescence)
Format: cell-based
Settings: not given
Protocol: as §1
Golgi fragmentation was quantified with immunofluorescence images of Golgi structural protein Giantin. Merge images of Hoechst and Giantin allowed identification of cell numbers and enumeration of Golgi fragments per cell (≤3 Golgi fragments per cell was considered intact Golgi) (Lee, J. E. et al. Dependence of Golgi apparatus integrity on nitric oxide in vascular cells: implications in pulmonary arterial hypertension. Am. J. Physiol. Heart Circ. Physiol. 300, H1141-58 (2011)). […]
Small molecule inhibitors were then screened to identify the molecular pathway by which NOS3 inhibition induces Golgi fragmentation. This is based on the rationale that inhibiting a protein on this pathway should also block methylene blue-induced Golgi fragmentation. […] A range of small molecule inhibitors against kinases that have previously ascribed roles in Golgi fragmentation were then used. DNA-PK with NU7441 was ruled out (Farber-Katz, S. E. et al. DNA damage triggers Golgi dispersal via DNA-PK and GOLPH3. Cell 156, 413-427 (2014)). Compounds containing an indirubin core have broad specificity for Cyclin dependent kinases (CDKs) and Src kinases. […] CDK1, CDK2 and CDK5 were ruled out, using (R)-Roscovitine (Rosco).

Row | Compound | effect on methylene blue (MB)-induced Golgi fragmentation | Golgi fragmentation by treatment alone | reduction of MB-induced Golgi fragmentation
6 | CC[C@H](CO)Nc1nc(NCc2ccccc2)c2ncn(C(C)C)c2n1 [(R)-Roscovitine] | ruled out |  | 
7 | COC(=O)[C@@H](N)CCCNC(=N)N[N+](=O)[O-] [L-NAME, L-N^G-Nitroarginine methyl ester] |  | underwent fragmentation | 
8 | C/C1=C/C(=O)O[C@@H]2C[C@@H](CC[C@H](C)/C=C\CC1)O[C@@](O)([C@@H]1CSC(=O)N1)C2 [Latrunculin B] | completely blocked |  | 
9 | CN(C)c1ccc2nc3ccc(=[N+](C)C)cc-3sc2c1 [Methylene Blue] |  | fragmented morphology | 
10 | O=c1cc(N2CCOCC2)oc2c(-c3cccc4c3sc3ccccc34)cccc12 [NU7441] | ruled out |  | 
11 | CC1(C)N([O])C(c2ccccc2)=[N+]([O-])C1(C)C [PTIO, 2-phenyl-4,4,5,5-tetramethylimidazoline-1-oxyl 3-oxide] |  | fragmented morphology | 
12 | CN(C)S(=O)(=O)c1ccc2c(c1)/C(=C/c1cc3c([nH]1)CCCC3)C(=O)N2 [SU6656] |  |  | ~50%
13 | CC1(C)CC(O)CC(C)(C)N1[O] [TEMPOL] |  | none of these treatments fragmented the Golgi | 
14 | C[C@@H](N)[C@H]1CC[C@H](C(=O)Nc2ccncc2)CC1 [Y-27632] | not mediated by apoptosis |  | 
15 | O=C1Nc2ccccc2/C1=C1/Nc2ccccc2/C1=N\O [indirubin-3′-monoxime] | completely blocked |  | 
16 | O=C1Nc2ccccc2/C1=C1/Nc2ccccc2/C1=N\OCC(O)CO (stereo not drawn) [indirubin-e804] | completely blocked |  | 
17 | Hemoglobin |  | fragmented morphology | 

Molecular target: T2, murine TLR-9 (Mus musculus, UniProt Q9EQU3)
T2 construct: endogenous in cells; host or cells: primary microglia from C57BL/6 mice
T2 sequence (Q9EQU3 26-1032): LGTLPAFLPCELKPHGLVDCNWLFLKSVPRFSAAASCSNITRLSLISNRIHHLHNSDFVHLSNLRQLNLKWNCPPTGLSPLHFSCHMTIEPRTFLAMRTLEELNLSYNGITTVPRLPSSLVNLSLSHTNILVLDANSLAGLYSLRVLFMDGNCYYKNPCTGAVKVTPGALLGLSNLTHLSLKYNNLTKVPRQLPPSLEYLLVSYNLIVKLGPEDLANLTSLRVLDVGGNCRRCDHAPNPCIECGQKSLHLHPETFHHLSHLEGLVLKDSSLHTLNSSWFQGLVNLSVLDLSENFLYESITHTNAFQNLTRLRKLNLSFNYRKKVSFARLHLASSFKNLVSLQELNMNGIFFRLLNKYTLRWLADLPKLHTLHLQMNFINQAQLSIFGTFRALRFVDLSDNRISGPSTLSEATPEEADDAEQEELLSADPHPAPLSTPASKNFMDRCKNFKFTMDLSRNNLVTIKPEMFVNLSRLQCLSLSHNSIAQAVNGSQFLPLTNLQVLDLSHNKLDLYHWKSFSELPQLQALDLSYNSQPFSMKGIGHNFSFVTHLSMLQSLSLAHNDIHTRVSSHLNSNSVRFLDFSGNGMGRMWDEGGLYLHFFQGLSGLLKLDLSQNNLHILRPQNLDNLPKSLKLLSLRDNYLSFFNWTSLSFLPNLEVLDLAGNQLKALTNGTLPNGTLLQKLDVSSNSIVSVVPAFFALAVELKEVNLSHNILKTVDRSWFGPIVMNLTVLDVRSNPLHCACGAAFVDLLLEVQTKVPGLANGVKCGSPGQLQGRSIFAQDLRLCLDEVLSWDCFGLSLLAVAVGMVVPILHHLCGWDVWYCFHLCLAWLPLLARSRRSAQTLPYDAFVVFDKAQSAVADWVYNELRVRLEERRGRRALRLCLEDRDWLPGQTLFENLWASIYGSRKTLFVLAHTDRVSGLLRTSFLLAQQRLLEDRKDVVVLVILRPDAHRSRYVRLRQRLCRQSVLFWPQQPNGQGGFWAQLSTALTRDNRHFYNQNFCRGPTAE
Assay: Endosomal NO in primary mouse microglia with NOckout^mCpG
Format: cell-based
Settings: primary microglial cells, NOckout^mCpG 500 nM 120 min, without or with 200 nM BAF
Source text: Image analysis: A MATLAB based program called Findosome was used to calculate the (G/R) values of individual endosomes from the acquired images. Maximum Z-projected images created using Fiji (NIH) were fed to Findosome to pick endosomal compartments as ROI corresponding to individual endosomes based on the A647 channel intensity. For each ROI, the program calculates fluorescence intensities both in the normalizing channel (A647, R) as well as in the DAR (G) channel. The results were exported as an excel file. From the results, (G/R) value for individual endosomes can be calculated. Phagosomal (G/R) values from the zebrafish microglia are calculated using Fiji software. Images were imported to Fiji and maximum Z-projected images were created. ROI were manually drawn around clearly identifiable phagosomes using the normalizing channel A647 intensity. Fluorescence intensities in A647 and DAR channels were calculated. G/R values are either represented as heat map images using Fiji or as bar graph using Origin software. Intracellular measurements of (G/R) values was performed in GFP colocalized microglia. For (G/R) ratio quantification experiments, only those vesicles that are present in both green (G) and red (R) channels were considered. […]

Row | Compound | endosomes with G/R value≥0.45
18 | CO/C1=C\C(C)=C\[C@@H](C)[C@@H](O)[C@@H](C)C/C(C)=C/C=C/[C@H](OC)[C@@H]([C@@H](C)[C@@H](O)[C@H](C)[C@@]2(O)C[C@@H](O)[C@H](C)[C@@H](C(C)C)O2)OC1=O [BAF] | 50%
